Paper PMC3925040 (British Journal of Pharmacology, 2014)

Columns and labels:
[1] = biological target: T1, transient receptor potential melastatin 3 (TRPM3) (Mus musculus, UniProt J9SQF3); experiment: Fura2 Ca2+ imaging in HEK293 cells, inhibition of PS response at […]; format: cell-based
[2] = biological target: T1, transient receptor potential melastatin 3 (TRPM3); experiment: whole-cell patch clamp inhibition of PS-evoked current in HEK293 cells; format: cell-based; settings: HEK293, read-out: % inhibition at 21 μM

T1 sequence (J9SQF3 1-1709 isoform J9SQF3-12): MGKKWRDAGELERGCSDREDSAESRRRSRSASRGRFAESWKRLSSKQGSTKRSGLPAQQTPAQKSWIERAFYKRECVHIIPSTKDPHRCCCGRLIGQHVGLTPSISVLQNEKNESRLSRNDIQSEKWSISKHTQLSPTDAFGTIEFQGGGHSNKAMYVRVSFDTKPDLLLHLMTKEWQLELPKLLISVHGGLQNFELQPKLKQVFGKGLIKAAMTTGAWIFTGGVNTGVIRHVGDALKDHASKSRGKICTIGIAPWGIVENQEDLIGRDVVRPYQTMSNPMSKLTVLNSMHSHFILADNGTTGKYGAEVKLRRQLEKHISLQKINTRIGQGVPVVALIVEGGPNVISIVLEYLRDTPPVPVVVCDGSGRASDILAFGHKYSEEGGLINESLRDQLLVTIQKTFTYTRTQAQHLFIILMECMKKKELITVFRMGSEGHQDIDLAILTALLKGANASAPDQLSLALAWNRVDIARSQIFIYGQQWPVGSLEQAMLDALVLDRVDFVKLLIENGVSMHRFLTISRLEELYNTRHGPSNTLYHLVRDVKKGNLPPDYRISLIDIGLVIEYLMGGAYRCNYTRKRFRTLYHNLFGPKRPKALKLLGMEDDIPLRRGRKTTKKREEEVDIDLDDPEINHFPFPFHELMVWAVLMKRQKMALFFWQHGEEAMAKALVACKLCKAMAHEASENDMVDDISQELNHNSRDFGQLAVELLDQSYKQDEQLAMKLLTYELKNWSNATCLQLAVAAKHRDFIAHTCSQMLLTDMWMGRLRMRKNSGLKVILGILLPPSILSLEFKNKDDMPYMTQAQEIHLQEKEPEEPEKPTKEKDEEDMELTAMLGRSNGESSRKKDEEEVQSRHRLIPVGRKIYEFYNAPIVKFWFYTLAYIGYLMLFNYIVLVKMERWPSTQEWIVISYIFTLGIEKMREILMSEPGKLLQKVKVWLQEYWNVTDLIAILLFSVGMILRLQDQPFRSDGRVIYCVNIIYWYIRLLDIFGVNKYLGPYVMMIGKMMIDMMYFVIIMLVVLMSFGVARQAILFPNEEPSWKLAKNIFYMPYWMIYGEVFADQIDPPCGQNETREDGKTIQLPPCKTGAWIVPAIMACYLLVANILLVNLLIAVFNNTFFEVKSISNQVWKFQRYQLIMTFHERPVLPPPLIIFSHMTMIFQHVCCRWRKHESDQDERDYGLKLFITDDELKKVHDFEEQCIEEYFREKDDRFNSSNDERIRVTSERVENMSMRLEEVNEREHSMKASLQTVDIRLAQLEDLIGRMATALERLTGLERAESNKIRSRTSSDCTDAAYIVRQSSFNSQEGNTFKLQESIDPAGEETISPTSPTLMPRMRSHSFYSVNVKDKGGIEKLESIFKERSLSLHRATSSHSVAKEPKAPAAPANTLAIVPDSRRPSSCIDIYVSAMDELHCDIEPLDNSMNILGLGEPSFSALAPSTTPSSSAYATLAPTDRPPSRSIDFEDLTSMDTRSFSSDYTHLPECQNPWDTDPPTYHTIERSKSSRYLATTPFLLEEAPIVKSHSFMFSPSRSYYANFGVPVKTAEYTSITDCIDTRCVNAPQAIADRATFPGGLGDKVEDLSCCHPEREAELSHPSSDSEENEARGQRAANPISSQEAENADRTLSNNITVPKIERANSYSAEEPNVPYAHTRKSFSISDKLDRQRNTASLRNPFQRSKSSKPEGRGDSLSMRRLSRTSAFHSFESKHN

Row | inhibition at 21 µM [2] [%] | SMILES | Fura2 Ca2+ imaging in HEK293 cells, inhibition of PS response at 50 μM [1]
1 | – | COC(=O)C1=C(C)NC(C)=C(C(=O)OCCN(C)Cc2ccccc2)C1c1cccc([N+](=O)[O-])c1 (centres unmarked) [Nic, nicardipine] | nicardipine also inhibited PS-induced TRPM3 activation
2 | 70.2 | COCCOC(=O)C1=C(C)NC(C)=C(C(=O)OC(C)C)C1c1cccc([N+](=O)[O-])c1 (centres unmarked) [nimodipine] | –
